We go through nine compounds from paper PMC9608075 (Pharmaceutics, 2022).

A value given as a limit tells only on which side of the number the result lay.

By IC50 is commonly meant the concentration at which inhibition is half-maximal. A word on the share remaining: it is what is left of the initial amount, in per cent. Higher therefore signals greater stability. One may read the bioavailability as dose-corrected exposure relative to a reference, in per cent. A low value points to little systemic uptake. By AUC(0-t) is commonly meant the area under the concentration-time curve up to a stated or last time point. For orientation: clearance means the volume of plasma or blood freed of the substance per unit of time. High values mean efficient removal, low ones inefficient removal. In general, Cmax refers to the highest concentration seen after dosing. Usually Tmax stands for the time from dosing to the highest level. The term half-life denotes how long it takes for the measured level to halve. A higher half-life goes with slow decline. In general, Kp refers to the ratio of the level in a tissue or fluid to that in plasma or blood. In general, inhibition refers to the share of the control response that was lost under treatment. Read a high inhibition as a response far below the control.

The target of one data set is human recombinant GCPII (Homo sapiens, UniProt Q04609). Nature of the data set: GCPII activity assay (radioactivity-based, NAA-[3H]-G). The settings on record: for IC50: human recombinant GCPII. The class given is biochemical. On the procedure:
Inhibition potencies against GCPII (IC50 values) were determined using previously described methods with minor modifications. Briefly, reactions were carried out in the presence of NAA-[^3H]-G and human recombinant GCPII enzyme in Tris-HCl and CoCl2 at 37 °C for 20 min. Reactions were stopped with ice-cold sodium phosphate buffer containing 1 mM EDTA. Aliquots were then transferred to 96-well spin columns containing AG1X8 ion-exchange resin and centrifuged. NAA-[^3H]-G was bound to the resin and [^3H]-G eluted in the flow-through. Columns were washed with formate to ensure complete elution of [^3H]-G. The flow-through and the washes were collected, and aliquots were transferred and dried to completion in a solid scintillator-coated 96-well plate. The radioactivity corresponding to [^3H]-G was determined with a scintillation counter. Subsequently, IC50 curves were generated from CPM results.
The inhibitory potencies of the catechols were determined using a modified radioactivity-based assay involving human recombinant GCPII enzyme as previously reported. Based on literature reports of catecholic moieties binding to zinc metalloproteases, we tested the potency of L-DOPA (1) against GCPII activity and discovered that it is a submicromolar inhibitor. […] This prompted us to evaluate analogs of L-DOPA (Table 1) to determine the essential structural features responsible for its GCPII inhibitory activity. […] Subsequently, we tested L-DOPA analogs retaining the catechol moiety (compounds 5–10). […] Taken together, these structure–activity relationship (SAR) studies highlight the critical role played by the catechol and carboxylate groups of L-DOPA in GPCII inhibition as well as the insignificant contribution of the alpha amino group.

Data set [1] in a line: Metabolic stability in mouse plasma. The class given is in vitro ADME. Conditions: 37 °C, 60 min. On the procedure:
(§1) Briefly, brain homogenates were prepared by adding 9X of 0.1 M potassium phosphate buffer to weighed tissue and homogenization using a probe sonicator. Plasma and crude brain homogenate (1 mL each) were spiked with the analyte to give a final concentration of 10 µM and then incubated at 37 °C for 1 h. At predetermined time points (0, 30, and 60 min), an aliquot from each matrix was quenched with 3X volume of acetonitrile containing the internal standard (IS; losartan: 0.5 μM) and vortex-mixed for 30 s. The final mixtures were centrifuged at 10,000× g for 10 min at 4 °C and supernatants were used for LC-MS analyses.
(§2) The samples were analyzed using a Dionex Ultimate 3000 ultra-high-performance LC system coupled with a Q Exactive Focus orbitrap mass spectrometer (Thermo Fisher Scientific Inc., Waltham MA, USA) operated with a heated electrospray ionization (HESI) ion source. […] The mass spectrometer was operated in switching ionization mode to collect both positive and negative molecular ions while being controlled by Xcalibur software 4.0.27.13 (Thermo Scientific). Analytes were quantified and the disappearance of the respective catechols was monitored in the full-scan mode (from m/z 50 to 1600) by comparing samples at the different time-points.

A further data set in a line: in vitro. The class given is in vitro ADME. Conditions: mouse, brain homogenate. The method, then:
as §1, §2

Data set [2] in a line: Metabolite identification (MET-ID) in spiked brain homogenate. The class given is in vitro ADME, mouse. The settings on record: 30 min post-spike.
Data set [3] is described as follows: Initial two time-point pharmacokinetic study in mice. The settings on record: 50 mg/kg PO; for brain levels: at both time points (30 and 60 min); for concentration at 30 min: 30 min post dose. Format: in vivo, mouse. The method, then: For in vivo PK studies, male CD-1 mice (Harlan Laboratories, Indianapolis, IN, USA) weighing 25-30 g were used. The mice were maintained on a 12 h light-dark cycle with ad libitum access to food and water. […] Brains were dissected and immediately flash frozen (-80 °C). […] Caffeic acid was analyzed underivatized. […] Plasma and brain tissue samples were processed by matching dilutions of the calibration standards. […] Then, 2 μL of the sample was analyzed using LC/MS/MS system. […] Plasma and brain tissue samples were processed by matching the dilutions of calibration standards of the respective tissues. […] The solutions were vortexed for 15 s and then allowed to sit at room temperature for 45 min. These mixtures were vortexed again for 10 s and centrifuged at 10,000× g for 10 min to collect the supernatant. Then, 2 μL of the sample was injected into the LC/MS/MS system for analysis. Chromatographic analysis was performed using a Thermo Scientific Vanquish UPLC system consisting of an analytical pump and an autosampler coupled with a […] spectrometer. […] The mobile phase was delivered as a gradient at a flow rate of 0.400 mL/min. […] The analyte was monitored using a ThermoScientific […] triple-quadrupole mass-spectrometric detector equipped with an electrospray interface, and operated in negative ion mode. The instrument was controlled by Thermo Scientific Xcalibur (version 4.2.47) software.

Another data set in a line: in vivo. Conditions: male, CD-1, mouse. The method, then:
All of the formulations were freshly prepared prior to the dosing. […] Brain and plasma collection were carried out as described above. […] Plasma and brain tissue samples were processed by matching the dilutions of calibration standards of the respective tissues. […] The solutions were vortexed for 15 s and then allowed to sit at room temperature for 45 min. These mixtures were vortexed again for 10 s and centrifuged at 10,000× g for 10 min to collect the supernatant. Then, 2 μL of the sample was injected into the LC/MS/MS system for analysis. Chromatographic analysis was performed using a Thermo Scientific Vanquish UPLC system consisting of an analytical pump and an autosampler coupled with a […] spectrometer. […] The mobile phase was delivered as a gradient at a flow rate of 0.400 mL/min. […] The analyte was monitored using a ThermoScientific […] triple-quadrupole mass-spectrometric detector equipped with an electrospray interface, and operated in negative ion mode. The instrument was controlled by Thermo Scientific Xcalibur (version 4.2.47) software.

For another data set, the target named is T1, GCPII (Mus musculus, UniProt O35409).
T1 construct: from tissue
T1 sequence (O35409 whole entry): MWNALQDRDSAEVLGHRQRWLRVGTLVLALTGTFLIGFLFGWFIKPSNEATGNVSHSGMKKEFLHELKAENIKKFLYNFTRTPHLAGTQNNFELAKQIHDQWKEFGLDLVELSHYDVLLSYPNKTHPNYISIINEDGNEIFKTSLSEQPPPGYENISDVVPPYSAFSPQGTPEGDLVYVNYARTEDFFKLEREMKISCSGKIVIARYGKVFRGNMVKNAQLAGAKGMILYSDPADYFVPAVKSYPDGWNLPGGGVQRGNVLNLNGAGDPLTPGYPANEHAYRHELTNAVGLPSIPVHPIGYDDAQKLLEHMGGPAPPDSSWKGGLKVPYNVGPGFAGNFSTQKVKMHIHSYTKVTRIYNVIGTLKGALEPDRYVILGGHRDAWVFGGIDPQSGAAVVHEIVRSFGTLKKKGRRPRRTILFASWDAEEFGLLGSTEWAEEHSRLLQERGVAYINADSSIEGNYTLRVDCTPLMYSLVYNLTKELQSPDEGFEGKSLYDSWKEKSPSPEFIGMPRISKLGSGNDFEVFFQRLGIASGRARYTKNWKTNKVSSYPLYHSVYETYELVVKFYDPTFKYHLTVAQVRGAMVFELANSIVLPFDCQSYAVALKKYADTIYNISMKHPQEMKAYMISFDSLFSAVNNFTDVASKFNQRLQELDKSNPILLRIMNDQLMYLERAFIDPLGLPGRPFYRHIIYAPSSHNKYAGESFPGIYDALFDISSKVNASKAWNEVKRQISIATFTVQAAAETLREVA
Put plainly: D-DOPA target engagement: ex vivo GCPII activity in mouse brain. Conditions: for brain GCPII activity, effect in words: 30 min.

[4] abbreviates: male, CD-1, mouse, plasma, read-out: plasma levels.

human recombinant GCPII, sequence (Q04609 whole entry): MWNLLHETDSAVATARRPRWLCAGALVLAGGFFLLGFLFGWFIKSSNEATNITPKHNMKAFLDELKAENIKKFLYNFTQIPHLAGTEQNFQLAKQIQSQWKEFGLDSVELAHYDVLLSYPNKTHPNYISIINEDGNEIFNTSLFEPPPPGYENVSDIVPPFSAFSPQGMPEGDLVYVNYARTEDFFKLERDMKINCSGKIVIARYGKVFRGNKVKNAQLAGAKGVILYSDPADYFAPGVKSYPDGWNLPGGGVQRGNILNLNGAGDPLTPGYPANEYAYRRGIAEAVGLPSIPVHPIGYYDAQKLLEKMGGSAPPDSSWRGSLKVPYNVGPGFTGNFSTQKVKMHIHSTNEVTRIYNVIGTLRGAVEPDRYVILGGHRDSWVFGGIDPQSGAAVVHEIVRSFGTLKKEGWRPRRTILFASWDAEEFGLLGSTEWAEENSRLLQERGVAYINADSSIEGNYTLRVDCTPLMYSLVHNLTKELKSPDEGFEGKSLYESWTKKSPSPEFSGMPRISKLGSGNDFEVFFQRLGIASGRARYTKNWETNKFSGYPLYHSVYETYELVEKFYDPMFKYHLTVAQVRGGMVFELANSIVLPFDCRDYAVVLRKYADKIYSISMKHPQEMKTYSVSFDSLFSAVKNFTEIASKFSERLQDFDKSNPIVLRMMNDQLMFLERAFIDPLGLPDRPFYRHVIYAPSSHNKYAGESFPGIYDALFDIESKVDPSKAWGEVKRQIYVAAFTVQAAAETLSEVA

In the case of `N[C@@H](Cc1ccc(O)c(O)c1)C(=O)O` [Compound 1, L-DOPA, reference compound], the half-inhibitory concentration (IC50) on human recombinant GCPII turned out to be 0.6 µM. In data set [1], this compound gave an amount remaining at 1 h, 10 µM of 64%. The fraction remaining at 0.5 h, 10 µM in “in vitro” is 0%. The “Dopamine release in spiked brain homogenate” value in data set [2] is on record as “observed”. In data set [3], the brain levels is < 0.10 nmol/g. In addition, the concentration at 30 min in data set [3] (setting [4]) was determined as 3.74 µM.

As to `N[C@@H](Cc1ccc(O)cc1)C(=O)O` [Compound 2, Tyr], at human recombinant GCPII, the IC50 came out at 100 µM.

Regarding `NC(Cc1ccc(=O)n(O)c1)C(=O)O` (stereo not shown) [Compound 4], on human recombinant GCPII, the IC50 was > 100 µM.

In the case of `C[C@](N)(Cc1ccc(O)c(O)c1)C(=O)O` [Compound 5], the IC50 on human recombinant GCPII was > 100 µM.

As for `CC(=O)N[C@@H](Cc1ccc(O)c(O)c1)C(=O)O` [Compound 6], the 50% inhibitory concentration (IC50) on human recombinant GCPII came out at 20 µM.

For the compound `NCCc1ccc(O)c(O)c1` [Compound 7, Dopamine, reference compound], on human recombinant GCPII, the IC50 was > 100 µM.

On to `O=C(O)CCc1ccc(O)c(O)c1` [Compound 8], for which the IC50 at human recombinant GCPII was 4 µM. Also, on human recombinant GCPII (versus L-DOPA), the “decrease in inhibitory potency” value worked out at 6.7 fold.

As to `O=C(O)/C=C/c1ccc(O)c(O)c1` [Compound 9, Caffeic Acid], the concentration for half-maximal inhibition (IC50) at human recombinant GCPII came to 0.3 µM. Besides, the amount remaining at 1 h, 10 µM in data set [1] was determined as 56%; in the data set “in vitro”, 98%. The “plasma levels following oral administration” value in data set [3] (30 and 60 min) lay within 6 to 7 µM. The brain levels in data set [3] was < 0.01 nmol/g. For the same compound, in data set [3] (setting [4]), the concentration at 30 min was 6.47 µM.

`N[C@H](Cc1ccc(O)c(O)c1)C(=O)O` [Compound 10, D-DOPA]: the half-maximal inhibitory concentration (IC50) at human recombinant GCPII turned out to be 0.2 µM. For the same compound, the share remaining at 1 h, 10 µM in data set [1] was 100%; in the data set “in vitro” it was 82%. For the same compound, the “Dopamine release in spiked brain homogenate” value in data set [2] was “not observed”. Besides, the brain levels in data set [3] is given as ~ 1 nmol/g. Besides, the concentration at 30 min in data set [3] (setting [4]) amounted to 84.3 µM. The concentration at 1 h in data set [3] (male, CD-1, mouse, plasma, one hour post dose, read-out: plasma levels) was 21.5 µM. In the data set “in vivo”, this compound showed a bioavailability of 47.7%. In addition, the area under the curve AUC(0-t) amounted to 30.5 µM·h in the data set “in vivo” (iv, 10 mg/kg) and 72.7 µM·h in the data set “in vivo” (po, 50 mg/kg). Besides, the clearance is 28 mL/min/kg in “in vivo” (iv, 10 mg/kg, Cl) and 28 mL/min/kg in “in vivo” (iv, 10 mg/kg, clearance (Cl)). The peak concentration (Cmax) in the data set “in vivo” (iv, 10 mg/kg, Cmax) was 61.1 µM; in “in vivo” (po, 50 mg/kg) it was 1.74 µM; in the data set “in vivo” (po, 50 mg/kg, Cmax), 99 µM. The time of peak concentration (Tmax) in the data set “in vivo” (iv, 10 mg/kg, Tmax) is 5 min; in “in vivo” (po, 50 mg/kg) it was 15 min; in the data set “in vivo” (po, 50 mg/kg, Tmax) it was 30 min. Further, the half-life in the data set “in vivo” (iv, 10 mg/kg, half-life (t1/2)) is 21 min. The same compound returned an AUCbrain in the data set “in vivo” (po, 50 mg/kg) of 2.42 nmol/g. Further, the Kp in “in vivo” (po, 50 mg/kg, AUCBrain/Plasma ratio (brain penetration index)) was 0.03. In addition, the “brain GCPII activity, effect in words” value on GCPII (PO 50 mg/kg + sodium benzoate IP 400 mg/kg, p < 0.001 vs untreated) was “significant inhibition”; on GCPII (monotherapy PO 50 mg/kg, p < 0.01 vs untreated), “significant inhibition”. For the same compound, the inhibition at 50 mg/kg against GCPII (mouse, po) is ~25%.
